Test results from patent publication US5324742A, “Aldose reductase inhibitor obtained from Crucibulum sp. RF-3817” (Shionogi & Co., Ltd., priority 1990, dated 1994).
“Also recorded” adds a separate entry of the source.

Tests used:
Solubility in solvents = format: physicochemical; conditions: for State: solubility in organic solvents: organic solvents such as ethyl acetate, acetone, methanol, and ethanol
aldose reductase = target: T1, aldose reductase (Rattus norvegicus, UniProt P07943); test: Aldose reductase-inhibiting activity (rat lens homogenate supernatant, D,L-glyceroaldehyde substrate, TPNH coenzyme); format: biochemical; conditions: 10 mM D,L-glyceroaldehyde, 0.1 mM TPNH, pH 6.2, 25° C., absorbance at 340 nm
T1 construct: A homogenate of rat lenses was used as an enzyme source; from tissue; host or cells: rat lens, supernatant of the homogenate after centrifugation
Protocol: Aldose Reductase-Inhibiting Activity
A homogenate of rat lenses was used as an enzyme source, glyceroaldehyde as a substrate, and TPNH as a coenzyme. To a mixture of 0.1M phosphate buffer (pH 6.2), 0.4M sodium sulfate, 0.1 mM TPNH (reduced form of triphosphopyridine nucleotide), and 10 mM D, L-glyceroaldehyde, a supernatant obtained from the homogenate of rat lenses by centrifugation was added as an enzyme source, so that the change in absorbance at 340 nm became 0.02 units per minute at 25° C. The change in absorbance at 340 nm for initial one minute was measured at 25° C., and the inhibiting activity was determined.

| SMILES | State: solubility in organic solvents (Solubility in solvents) | IC50 (aldose reductase) | Solubility (Solubility in solvents; solvents: ethyl acetate, DMSO, methanol, ethanol, chloroform, ether, petroleum ether) |
| --- | --- | --- | --- |
| CC(C(=O)O)C1Cc2c(cc3c(c2O)C(=O)NC3=O)O1 (centres unmarked) [RD-01-C1] | soluble | – | – |
| CC(C(=O)O)C1Cc2c(cc3c(c2O)C(=O)N(CC(=O)O)C3=O)O1 (centres unmarked) [RD-01-C2] | soluble | – | – |
| CC(C(=O)O)C1Cc2c(cc3c(c2O)C(=O)N(C(C)C(=O)O)C3=O)O1 (centres unmarked) [RD-01-C3] | soluble | – | – |

More lines, main results first:

| State: solubility in organic solvents (Solubility in solvents) | IC50 (aldose reductase) | SMILES | Solubility (Solubility in solvents; solvents: ethyl acetate, DMSO, methanol, ethanol, chloroform, ether, petroleum ether) |
| --- | --- | --- | --- |
| soluble | 11.9 µM | CC(C(=O)O)C1Cc2c(cc3c(c2O)CN(C(CCC(=O)O)C(=O)O)C3=O)O1 (centres unmarked) [RD-01-A3] | – |
| soluble | – | CC(C(=O)O)C1Cc2c(cc3c(c2O)CN(CC(=O)O)C3=O)O1 (centres unmarked) [RD-01-A4] | soluble in ethyl acetate, DMSO, methanol, and ethanol; also recorded: slightly soluble in chloroform and ether; also recorded: insoluble in petroleum ether |
| soluble | – | CC(C(=O)O)C1Cc2c(cc3c(c2O)CN(C(C)C(=O)O)C3=O)O1 (centres unmarked) [RD-01-A7] | – |
